According to patent US20230374017A1, “COMPOSITIONS AND METHODS FOR ACTIVATING PYRUVATE KINASE” (The Regents of the University of Michigan, priority 2020, published 2023):

What was measured:
human recombinant PKM2 = target: T1, human recombinant PKM2 (Homo sapiens, UniProt P14618); assay: Pyruvate kinase activity enzyme assay, recombinant enzyme (LDH-coupled, NADH depletion at 340 nm); assay type: biochemical; conditions: normalized to DMSO-treated PKM2 activity; for EC50: recombinant PKM2 20 nM; for Emax: recombinant PKM2, read-out: Max Activation
T1 construct: purchased Sigma SAE0021
Procedure: Pyruvate Kinase Activity Enzyme Assay. Recombinant Enzyme. A continuous, enzyme-coupled assay, which uses lactate dehydrogenase (LDH) and measures the depletion of NADH via absorbance at 340 nm was utilized to determine the pyruvate kinase activity. For AC50 measurements (concentration of activator necessary to achieve half-maximal activation) with ML-265, assays were performed in 96-well format using 200 μL/well assay volume with final concentrations of 20 nM human recombinant PKM2 (Sigma, SAE0021), differing concentrations of ML-265, 0.5 mM PEP, 1 mM ADP, 0.2 mM NADH, and 8 U of lactate dehydrogenase (LDH) in an assay buffer of 50 mM Tris-HCl (pH 7.4), 100 mM KCl, and 5 mM MgCl2. The decrease in absorbance at 340 nm was monitored using a SPECTROstar Omega plate reader (BMG LABTECH Inc., Cary, NC, USA). Initial velocities were calculated with the MARS software. Data were normalized to DMSO (dimethyl sulfoxide)-treated PKM2 activity.

[1] = target: T2, pyruvate kinase activity, 661W cell line (Mus musculus, UniProt P52480); assay: Pyruvate kinase activity in 661W cell lysates after 2 hours treatment; assay type: cell-based; conditions: 661W cells, 2 hours incubation, activity normalized to total protein; for Emax: read-out: Max Activation (cell)
T2 construct: endogenous in cells; host or cells: 661W cell line
Procedure: Cell culture. For 661W cell line experiments, media was replaced prior to the start of treatment with DMSO or ML-265. Cells were incubated with DMSO or different concentrations of ML-265 for 2 hours. Cells were lysed and homogenized in RIPA Lysis and Extraction Buffer (Catalog number: 89900, Life Technologies Corporation, Grand Island, NY) with protease inhibitors (Complete-Mini, Roche Diagnostics, Indianapolis, IN) and cellular debris was removed by centrifugation at 10,000 rpm for 10 minutes. Ten microliters of the supernatant was used to assess pyruvate kinase activity, and the activity was normalized to total protein content as previously described.

photoreceptors / retina = conditions: cited from earlier work

T2 sequence (P52480 whole entry): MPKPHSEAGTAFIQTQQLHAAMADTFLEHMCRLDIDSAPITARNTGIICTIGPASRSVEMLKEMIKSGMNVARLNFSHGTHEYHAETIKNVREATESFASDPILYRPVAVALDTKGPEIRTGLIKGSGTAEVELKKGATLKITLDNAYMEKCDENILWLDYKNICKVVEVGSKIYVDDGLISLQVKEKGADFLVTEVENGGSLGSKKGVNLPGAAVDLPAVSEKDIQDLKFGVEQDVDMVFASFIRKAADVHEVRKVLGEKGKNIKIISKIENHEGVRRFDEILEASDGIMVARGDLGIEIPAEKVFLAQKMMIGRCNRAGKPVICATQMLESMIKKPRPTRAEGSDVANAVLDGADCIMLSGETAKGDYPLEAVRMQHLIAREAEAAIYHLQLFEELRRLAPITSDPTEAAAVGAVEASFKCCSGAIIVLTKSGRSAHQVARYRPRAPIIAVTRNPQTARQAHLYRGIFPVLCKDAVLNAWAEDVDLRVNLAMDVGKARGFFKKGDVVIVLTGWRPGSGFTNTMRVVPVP
T1 sequence (P14618 whole entry): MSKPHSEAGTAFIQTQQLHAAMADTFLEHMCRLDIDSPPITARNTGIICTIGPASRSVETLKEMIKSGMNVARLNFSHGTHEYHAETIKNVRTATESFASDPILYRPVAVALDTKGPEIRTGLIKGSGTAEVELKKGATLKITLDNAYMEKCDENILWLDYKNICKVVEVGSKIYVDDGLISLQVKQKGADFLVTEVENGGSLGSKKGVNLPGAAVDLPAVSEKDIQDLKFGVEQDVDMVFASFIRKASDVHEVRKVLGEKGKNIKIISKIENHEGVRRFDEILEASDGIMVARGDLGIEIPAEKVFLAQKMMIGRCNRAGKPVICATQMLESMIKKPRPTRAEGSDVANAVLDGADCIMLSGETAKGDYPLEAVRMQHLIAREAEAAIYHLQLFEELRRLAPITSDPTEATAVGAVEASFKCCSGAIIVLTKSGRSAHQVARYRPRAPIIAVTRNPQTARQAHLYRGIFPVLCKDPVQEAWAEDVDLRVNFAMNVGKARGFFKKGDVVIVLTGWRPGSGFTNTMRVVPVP

EC50 (human recombinant PKM2) | Emax (human recombinant PKM2) | EC50 [1] | Emax [1] | SMILES | toxic effects on the retina (photoreceptors / retina; long-term) | photoreceptor apoptosis (photoreceptors / retina; small molecule activation of PKM2, models of outer retinal stress)
82 nM | 191% | 162 nM | 210% | Cn1c2cc(Oc3ccc4[nH]ncc4n3)ccc2c2cnn(Cc3ccccc3F)c(=O)c21 [Example 70, 7-((1H-pyrazolo[4,3-b]pyridin-5-yl)oxy)-3-(2-fluorobenzyl)-5-methyl-3,5-dihydro-4H-pyridazino[4,5-b]indol-4-one] | – | –
28 nM | 165% | 69 nM | 278% | Cn1c2cc(Oc3nccc4[nH]ncc34)ccc2c2cnn(Cc3ccccc3F)c(=O)c21 [Example 71, 7-((1H-pyrazolo[4,3-c]pyridin-4-yl)oxy)-3-(2-fluorobenzyl)-5-methyl-3,5-dihydro-4H-pyridazino[4,5-b]indol-4-one] | – | –
55 nM | 206% | 72 nM | 222% | Cn1c2cc(Oc3cccc(O)n3)ccc2c2cnn(Cc3ccccc3F)c(=O)c21 [Example 72, 3-(2-fluorobenzyl)-7-((6-hydroxypyridin-2-yl)oxy)-5-methyl-3,5-dihydro-4H-pyridazino [4,5-b]indol-4-one] | – | –
22 nM | 232% | 104 nM | 189% | Cn1c2cc(Oc3ncnc4[nH]ncc34)ccc2c2cnn(Cc3ccccc3F)c(=O)c21 [Example 73, 7-((1H-pyrazolo[3,4-d]pyrimidin-4-yl)oxy)-3-(2-fluorobenzyl)-5-methyl-3,5-dihydro-4H-pyridazino[4,5-b]indol-4-one] | – | –
62 nM | 234% | 81 nM | 370% | Cn1c2cc(Oc3cccc(F)n3)ccc2c2cnn(Cc3ccccc3F)c(=O)c21 [Example 74, 3-(2-fluorobenzyl)-7-((6-fluoropyridin-2-yl)oxy)-5-methyl-3,5-dihydro-4H-pyridazino[4,5-b]indol-4-one] | – | –
35 nM | 195% | 47 nM | 247% | Cn1c2cc(Oc3cccc(Cl)n3)ccc2c2cnn(Cc3cccc(N)c3)c(=O)c21 [Example 78, 3-(3-aminobenzyl)-7-((6-chloropyridin-2-yl)oxy)-5-methyl-3,5-dihydro-4H-pyridazino[4,5-b]indol-4-one] | – | –
45 nM | 286% | 235 nM | 325% | Cn1c2cc(Oc3cccc(N)c3)ccc2c2cnn(Cc3cccc(N)c3)c(=O)c21 [Example 80, 3-(3-aminobenzyl)-7-(3-aminophenoxy)-5-methyl-3,5-dihydro-4H-pyridazino[4,5-b]indol-4-one] | – | –
49 nM | 336% | 259 nM | 259% | Cn1ncc2c3ccc(Oc4cccc(Cl)n4)cc3n(C)c2c1=O [Example 81, 7-((6-chloropyridin-2-yl)oxy)-3,5-dimethyl-3,5-dihydro-4H-pyridazino[4,5-b]indol-4-one] | – | –
63 nM | 330% | 76 nM | 315% | Cn1c2cc(Oc3cccc(F)n3)ccc2c2cnn(Cc3cccc4[nH]ncc34)c(=O)c21 [Example 85, 3-((1H-indazol-4-yl)methyl)-7-((6-fluoropyridin-2-yl)oxy)-5-methyl-3,5-dihydro-4H-pyridazino[4,5-b]indol-4-one] | – | –
63 nM | 195% | 172 nM | 352% | Cn1c2cc(Oc3cccc(F)n3)ccc2c2cnn(Cc3cc[nH]n3)c(=O)c21 [Example 86, 3-((1H-pyrazol-3-yl)methyl)-7-((6-fluoropyridin-2-yl)oxy)-5-methyl-3,5-dihydro-4H-pyridazino[4,5-b]indol-4-one] | – | –
72 nM | 218% | 60 nM | 202% | COc1cccc(Cn2ncc3c4ccc(Oc5cccc(F)n5)cc4n(C)c3c2=O)c1 [Example 90, 7-((6-fluoropyridin-2-yl)oxy)-3-(3-methoxybenzyl)-5-methyl-3,5-dihydro-4H-pyridazino[4,5-b]indol-4-one] | – | –
– | – | – | – | Cn1c2cc([S+](C)[O-])sc2c2cnn(Cc3cccc(N)c3)c(=O)c21 (stereo not shown) [ML-265] | without any toxic effects on the retina long-term | circumvents photoreceptor apoptosis
